Where two headings read alike, the source gives them in different places.
Columns and labels:
[1] = system: explorations in the escape enclosure; assay: Sedative: number of explorations in the escape enclosure, mouse; type: in vivo; details: 100 mg/kg/PO
Procedure: The compounds of formula (I) administered orally to a mouse reduce the number of explorations in the escape enclosure. As examples, the administration of 100 mg/kg/PO of the compounds of code numbers 71562 and 72142 bring about a 40% reduction in the number of explorations in the escape enclosure in each case.

[2] = Acute toxicity / mortality, oral, mice; type: in vivo; details: mouse, in vivo; for mortality: read-out: Percentage of mortality with mice; for LD50: mice, oral, Table XI, read-out: LD50 (mice)
Source text: (§1) As is shown by the preceding results and by those given in Table XIV below, the difference between pharmacologically active doses and lethal doses is sufficiently great to allow the use of compounds of formula (I) in therapeutics.

[3] = system: coronary vessels of the isolated heart of a guinea pig; assay: Vasodilatory: flow in coronary vessels of isolated heart of a guinea pig; details: 0.5 μg/ml in perfusion liquid
Procedure: The compounds of formula (I) are able to increase the flow in the coronary vessels of the isolated heat of a guinea pig when they are added to the perfusion liquid of this organ. As an example, by adding 0.5 μg/ml of the compound code number 71562 to the perfusion liquid of the isolated heart of a guinea pig, a 45% increase in the flow of the coronary vessels was observed.

urinary elimination = assay: Diuretic: volume of urine in mouse; type: in vivo; details: 4 hours, versus controls, read-out: Percentage increase in urinary elimination; for change in vivo at 50 mg/kg: 50 mg/kg/PO; for change in vivo at 12.5 mg/kg: 12.5 mg/kg/PO
Procedure: The compounds of formula (I) administered orally to a mouse simultaneously with a volume of 1 ml of sodium chloride isotonic solute per 25 g of body weight are able to cause an increase of the volume of urine given compared with controls, this volume being measured for the 4 hours following administration.

[4] = system: isolated fundus of rats (serotonine); assay: Antiserotonine: contractions of the isolated fundus of rats provoked by serotonine; details: in vitro
Source text: (§2) For purposes of comparison, compounds of the formula (I) were compared, as to their antiserotonine properties, with a respresentative sampling of compounds disclosed in U.S. Pat. No. 3,726,900. The comparison compounds tested have the formula [drawing 23]

[5] = system: ventricular fibrillations caused by inhaling chloroform; assay: Antiarythmic: ventricular fibrillations caused by inhaling chloroform in mouse; type: in vivo; details: ip, intraperitoneal, read-out: Antagonism to fibrillations caused by chloroform with a mouse, DE50
Source text: Administered intraperitoneally, the compounds of formula (I) are able to protect the mouse against ventricular fibrillations caused by inhaling chloroform.

[6] = system: painful stretchings following intraperitoneal injection of acetic acid; assay: Analgesic: painful stretchings following intraperitoneal acetic acid in mouse; type: in vivo; details: 100 mg/kg/PO, read-out: Percentage reduction in the number of painful stretchings
Source text: The compounds of formula (I) administered orally to a mouse are capable of reducing the number of painful stretchings following the intraperitoneal injection of acetic acid.

[7] = system: lethal effect of yohimbine; assay: Anti-depressive: potentialization of lethal effect of yohimbine; type: in vivo; details: Table XII
[8] = system: bronchoconstrictions provoked by serotonine; assay: Antiserotonine: bronchoconstrictions provoked by intravenous serotonine in guinea pigs (Konzett and Rossler test); type: in vivo; details: Cavia porcellus, serotonine bronchoconstriction, read-out: Test of Konzett and Rossler DE50
Source text: as §2

[9] = system: ptosis caused by reserpine; assay: Anti-depressive: antagonism against ptosis caused by intravenous reserpine; type: in vivo; details: for ED50: po, Table XII, read-out: Antagonism against ptosis caused by reserpine, DE50
Procedure: (§3) In this regard, the compounds of formula I differ unexpectedly from the compounds of U.S. Pat. No. 3,726,900, as shown by comparative testing.
(§4) The anti-depressive properties of additional analog compounds were tested by the same tests. In these tests, the comparison compounds had the formula [drawing 28] The specific compounds tested and the test results are indicated in Table XIII.

[10] = system: isolated tied uterus (serotonine); assay: Antiserotonine: contractions of the isolated tied uterus provoked by serotonine; details: in vitro
Source text: as §2

[11] = system: isolated duodenum of a rat (barium chloride); assay: Spasmolytic: contraction by barium chloride of isolated duodenum of a rat; details: for Spasmolytic activity: relative to papaverine as the standard
Procedure: Compounds of formula I, introduced in the survival medium, are capable of opposing the contacting action of barium chloride on the isolated duodenum of a rat. This activity is determined either by taking papaverine as the standard or by calculating the DE50 of the compound tested.

[12] = system: isolated ileum of a guinea pig (histamine); assay: Antihistamine: contraction by histamine of isolated ileum of a guinea pig
Procedure: The compounds of formula (I) introduced in the survival medium are able to oppose the contracting action of histamine on the isolated ileum of a guinea pig. This activity is calculated by the DE50 of the tested compounds.

[13] = system: local edema caused by carraghenine; assay: Antiinflammatory: local plantar edema caused by carraghenine in rat; type: in vivo
Source text: These properties bring about a reduction of the local edema, caused by injecting a rat under the plantar with a phlogogenic agent such as carraghenine, following oral administration of compounds of formula (I).

[14] = system: respiratory depression caused by morphine; assay: Respiratory analeptic: respiratory depression caused by morphine in anaesthetized guinea pig; type: in vivo; details: 5 mg/kg/IV
Procedure: The compounds of formula (I) administered intravenously to an anaesthetized guinea pig are capable of opposing respiratory depression caused by morphine. As an example, with a dose of 5 mg/kg/IV, compound 70358 increased respiratory frequency by 65%.

[15] = system: cough caused by stimulation of the upper laryngeal nerve; assay: Anti-cough: cough caused by stimulation of the upper laryngeal nerve in an anaesthetized cat; type: in vivo
[16] = system: lethal effect of yohimbine; assay: Anti-depressive: potentialization of lethal effect of yohimbine; type: in vivo; details: at 100 mg/kg/PO
Procedure: as §3, §4

[17] = system: gastric ulcers (Shay ulcers); assay: Antiulcerous: gastric ulcers caused in a rat by ligature of the pylorus (Shay ulcers); type: in vivo; details: 50 mg/kg, intraduodenal
Procedure: Compounds of formula (I) administered intraduodenally reduce the size of gastric ulcers caused in a rat by ligature of the pylorus (Shay ulcers). As examples, the intradeuodenal administration of 50 mg/kg of the compounds of code numbers 72143 and 7251 bring about a 70% and 65% reduction respectively of the Shay ulcer.

arterial pressure = assay: Hypotensive: arterial pressure of anaesthetized rat; type: in vivo
Source text: Administered intravenously to an anaesthetized rat, the compounds of formula (I) cause a lowering of arterial pressure.

mice = assay: Acute toxicity / mortality, oral, mice; type: in vivo; details: oral; Table XII
Source text: as §1

[18] = at 50 mg/kg/PO, result in words

Compound | LD50 [2] | Antagonisms against contractions of fundus of rat, DE50 [4] | ED50 [5] | inhibition in vivo at 100 mg/kg [6] | ED50 [8] | Antagonisms against contractions of tied uterus, DE50 [10] | DE50 (spasmolytic) [11] | Spasmolytic activity [11] | Antagonism against ptosis caused by reserpine ([9]; at 100 mg/kg/PO) | other results
O=C(CN1CCN(CC2COC3(O2)c2ccccc2C=Cc2ccccc23)CC1)N1CCCC1 (stereo not shown) [compound 71562] | 2000 mg/kg | 0.1 µg/mL | 125 mg/kg | 47% | – | – | – | – | – | Reduction in the number of explorations in the escape enclosure [1]: 40%; mortality ([2]; 2000 mg/kg/PO): ~50%; Increase in the flow of the coronary vessels [3]: 45%; change in vivo at 50 mg/kg (urinary elimination): 70%
CN(C)CC1COC2(O1)c1ccccc1C=Cc1ccccc12 (stereo not shown) [compound 70312, reference compound] | 480 mg/kg | – | – | – | 0.43 mg/kg | – | – | – | – | Potentialization of lethal effect of yohimbine, DE50 [7]: 46 mg/kg/PO; ED50 [9]: 13 mg/kg
O=C(CN1CCN(CC2COC3(O2)c2ccccc2C=Cc2ccccc23)CC1)N1CCOCC1 (stereo not shown) [compound 71564] | 3500 mg/kg | 0.74 µg/mL | 200 mg/kg | – | 0.05 mg/kg | 0.001 µg/mL | 2.50 µg/mL | – | – | mortality ([2]; 3500 mg/kg/PO): ~50%; change in vivo at 12.5 mg/kg (urinary elimination): 50%
OCC(O)CN1CCN(CC2COC3(O2)c2ccccc2C=Cc2ccccc23)CC1 (stereo not shown) [compound 72196] | 1100 mg/kg | – | – | 45% | – | – | 0.25 µg/mL | – | – | mortality ([2]; 1100 mg/kg/PO): ~50%; change in vivo at 12.5 mg/kg (urinary elimination): 40%; Antihistamine activity DE50 [12]: 1 µg/mL; Percentage reduction of the edema ([13]; 100 mg/kg/PO): 70%
CN1CCN(CC2COC3(O2)c2ccccc2CCc2ccccc23)CC1 (stereo not shown) [compound 70358] | 1000 mg/kg | – | – | 43% | – | – | – | 1.5 × papaverine | Inactive | mortality ([2]; 1000 mg/kg/PO): ~50%; Increase in respiratory frequency [14]: 65%; Reduction of cough, duration ([15]; 25 mg/kg/ID): > 60 mm; Reduction of cough, intensity ([15]; 25 mg/kg/ID): 100%; Potentialization of lethal effect of yohimbine [16]: 40%
O=C(CN1CCN(CC2COC3(O2)c2ccccc2CCc2ccccc23)CC1)N1CCOCC1 (stereo not shown) [compound 70357] | 1300 mg/kg | 0.54 µg/mL | – | – | 0.005 mg/kg | 0.005 µg/mL | – | 1.5 × papaverine | Inactive | mortality ([2]; 1300 mg/kg/PO): ~50%; Reduction of cough, duration ([15]; 2 mg/kg/IV): 20 mm; Reduction of cough, intensity ([15]; 2 mg/kg/IV): 100%; Potentialization of lethal effect of yohimbine ([16]; result in words): Inactive
CN1CCN(CC2COC3(O2)c2ccccc2C=Cc2ccccc23)CC1 (stereo not shown) [compound 72143] | 300 mg/kg | – | – | – | – | – | 3.75 µg/mL | – | – | mortality ([2]; 300 mg/kg/PO): ~50%; change in vivo at 25 mg/kg (urinary elimination; 25 mg/kg/PO): 70%; Antihistamine activity DE50 [12]: 0.25 µg/mL; Percentage reduction of the edema ([13]; 30 mg/kg/PO): 70%; Reduction of the Shay ulcer [17]: 70%; Antagonism against ptosis caused by reserpine [9, 18]: Inactive
CC(C)NC(=O)CN1CCN(CC2COC3(O2)c2ccccc2CCc2ccccc23)CC1 (stereo not shown) [compound 70347] | 1200 mg/kg | – | – | 70% | 0.5 mg/kg | 0.02 µg/mL | – | 1.5 × papaverine | Inactive | mortality ([2]; 1200 mg/kg/PO): ~50%; Reduction of cough, duration ([15]; 1 mg/kg/IV): 20 mm; Reduction of cough, intensity ([15]; 1 mg/kg/IV): 80%; Potentialization of lethal effect of yohimbine ([16]; result in words): Inactive; Reduction of arterial pressure, duration (arterial pressure; 2 mg/kg/IV): > 30 mm; Reduction of arterial pressure, intensity (arterial pressure; 2 mg/kg/IV): 50%
CCCNC(=O)CN1CCN(CC2COC3(O2)c2ccccc2C=Cc2ccccc23)CC1 (stereo not shown) [compound 72142] | 1650 mg/kg | – | 85 mg/kg | 70% | 0.6 mg/kg | – | 2.50 µg/mL | – | Inactive | Reduction in the number of explorations in the escape enclosure [1]: 40%; mortality ([2]; 1650 mg/kg/PO): ~50%; Potentialization of lethal effect of yohimbine [16]: 40%; change in vivo at 50 mg/kg (urinary elimination): 55%; Antihistamine activity DE50 [12]: 0.6 µg/mL
CCCN(CCC)C(=O)CN1CCN(CC2COC3(O2)c2ccccc2C=Cc2ccccc23)CC1 (stereo not shown) [compound 7204, -4'-[N'-(di-n-propylaminocarbonylmethyl) N-piperazinylmethyl] spiro [dibenzo(a,d)cycloheptatriene-5:2' dioxolane (1',3')] dimaleate] | 1900 mg/kg | 0.07 µg/mL | 100 mg/kg | 70% | – | – | 2.50 µg/mL | – | – | mortality ([2]; 1900 mg/kg/PO): ~50%
CN(C)CC1COC2(O1)c1ccccc1CCc1ccccc12 (stereo not shown) [compound 69257, reference compound] | 550 mg/kg | – | – | – | 0.4 mg/kg | – | – | – | – | Potentialization of lethal effect of yohimbine, DE50 [7]: 10 mg/kg/PO; ED50 [9]: 35 mg/kg
CN(C)C(=O)CN1CCN(CC2COC3(O2)c2ccccc2C=Cc2ccccc23)CC1 (stereo not shown) [compound 7251] | > 2000 mg/kg | – | 100 mg/kg | 50% | – | – | 3.50 µg/mL | – | – | LD50 (mice): > 2000 mg/kg/P.O.; mortality ([2]; 2000 mg/kg/PO): 0%; change in vivo at 50 mg/kg (urinary elimination): 45%; Reduction of the Shay ulcer [17]: 65%; Antagonism against ptosis caused by reserpine [9, 18]: Inactive
O=C(CN1CCN(CC2COC3(O2)c2ccccc2CCc2ccccc23)CC1)N1CCCC1 (stereo not shown) [compound 70339] | 1200 mg/kg | 0.67 µg/mL | – | 75% | 0.1 mg/kg | 0.002 µg/mL | – | 1 × papaverine | Inactive | mortality ([2]; 1200 mg/kg/PO): ~50%; Reduction of cough, duration ([15]; 1 mg/kg/IV): 20 mm; Reduction of cough, intensity ([15]; 1 mg/kg/IV): 100%; Potentialization of lethal effect of yohimbine ([16]; result in words): Inactive; Reduction of arterial pressure, duration (arterial pressure; 1 mg/kg/IV): > 30 mm; Reduction of arterial pressure, intensity (arterial pressure; 1 mg/kg/IV): 80%

Source: patent US4049660A, “N-substituted derivatives of 4 (N-piperazinylmethyl) spiro dibenzocycloheptadi- (or tri-) ene-5, 2-dioxolane (1,3) their method of preparation and their application in therapeutics” (Delalande S.A., priority 1971, dated 1977)
